Laboratory results reported in patent publication US9597407B2, “Targeted antimicrobial moieties” (C3 Jian, Inc., priority 2009, dated 2017).
Entries after “also recorded” stand apart in the source; their conditions may differ.

Tests used:
bacteria = assay: Binding of targeting peptides to microorganisms (Table 3); details: preferably 1x PBS; for Target(s) (microorganisms bound by the targeting peptide) / Target(s) (microorganism bound by the targeting peptide): peptide binding in aqueous buffers that varied depending on peptide solubility
microorganisms [1] = assay: Morphology, biofilm and growth disruption by peptides (Table 5); type: cell-based; design: key: A: Peptide aggregates; B: Less hyphal formation; Clumps; Diffuse clumps and small polyps; F: Diffuse growth; H: Thin; I: Growth inhibition; Microcolony formation; Rippled; Small polyps; Thick; W: Halo formation on top, microlonies on bottom
Description: In certain embodiments peptides that induce alterations in phenotype or other biological activities can also be used as antimicrobial effector moieties.

microorganisms [2] = assay: Peptide activities: binding, antimicrobial, growth or phenotype altering (Table 8)
Description: In certain embodiments, peptides described herein can have multiple activities. Thus for example, a peptide can have both binding/targeting activity and antimicrobial activity. Such peptides can be used, e.g., in a chimeric construct, for any or all of these properties. Thus, for example, a peptide designated “B” in Table 8 can be used as a targeting peptide. If it is also designated G or M it can also be used for antimicrobial activity.

[3] = microorganism the targeting peptide binds, binding in aqueous buffers that varied with peptide solubility
[4] = microorganism bound by the targeting peptide, binding in aqueous buffers chosen by peptide solubility

## PF-049 (AYYLKRREEKGK; Peptide with targeting and/or antimicrobial activity)
bacteria; [3]
  Target(s): S. epidermidis and MRSA and C. jeikeium and C. jejuni
Microorganisms [1]; MRSA
  Organism, effect: MRSA (S)
Microorganisms [2]
  Activities: G B

## PF-390 (VVAYVITQVGAIRF; Peptide with targeting and/or antimicrobial activity)
bacteria
  Target(s) (microorganisms bound by the targeting peptide): S. epidermidis and P. aeruginosa and C. albicans and MRSA
Microorganisms [1]; C. jejuni
  Organism, effect: C. jejuni (D)
Microorganisms [1]; E. coli
  Organism, effect: E. coli (C)
Microorganisms [1]; E. faecalis
  Organism, effect: E. faecalis (D)
Microorganisms [1]; MRSA
  Organism, effect: MRSA (D)
Microorganisms [1]; S. epidermidis
  Organism, effect: S. epidermidis (D)
Microorganisms [1]; S. pneumoniae
  Organism, effect: S. pneumoniae (D)
Microorganisms [2]
  Activities: G B

## PF-569 (KSKISEYTEKEFLEFVEDIYTNNK; Peptide with targeting and/or antimicrobial activity)
bacteria
  Target(s) (microorganisms bound by the targeting peptide): M. luteus; also recorded: P. mirabilis; also recorded: S. pneumoniae; also recorded: E. faecalis; also recorded: C. jeikeium
Microorganisms [1]; B. subtilis
  Organism, effect (morphology, biofilm and growth disruption): B. subtilis (D)
Microorganisms [2]
  Activities: G B

## PF-589 (APLRIDEIRNSNVIDEVLDCAPKKQEHFFVVPKIIE; Peptide with targeting and/or antimicrobial activity)
bacteria
  Target(s) (microorganisms bound by the targeting peptide): S. epidermidis and C. albicans and MRSA and S. pneumoniae
Microorganisms [1]; MRSA
  Organism, effect (morphology, biofilm and growth disruption): MRSA (M)
Microorganisms [1]; S. pneumoniae
  Organism, effect (morphology, biofilm and growth disruption): S. pneumoniae (C)
Microorganisms [2]
  Activities: G B

## PF-564 (TIILNDQINSLQERLNKLNAETDRR; Peptide with targeting and/or antimicrobial activity)
bacteria
  Target(s) (microorganisms bound by the targeting peptide): S. epidermidis; also recorded: C. albicans; also recorded: S. pneumoniae; also recorded: C. jeikeium
Microorganisms [1]; B. subtilis
  Organism, effect (morphology, biofilm and growth disruption): B. subtilis (D)
Microorganisms [1]; C. jeikeium
  Organism, effect (morphology, biofilm and growth disruption): C. jeikeium (R)
Microorganisms [1]; C. jejuni
  Organism, effect (morphology, biofilm and growth disruption): C. jejuni (R)
Microorganisms [1]; MRSA
  Organism, effect (morphology, biofilm and growth disruption): MRSA (C)
Microorganisms [2]
  Activities: G B

## PF-444 (MAAKLWEEGKMVYASSASMTKRLKLAMSKV; Peptide with targeting and/or antimicrobial activity)
bacteria
  Target(s) (microorganisms bound by the targeting peptide): M. luteus; also recorded: C. albicans; also recorded: S. pneumoniae; also recorded: C. jeikeium
Microorganisms [1]; E. coli
  Organism, effect (morphology, biofilm and growth disruption): E. coli (R)
Microorganisms [1]; E. faecalis
  Organism, effect (morphology, biofilm and growth disruption): E. faecalis (C)
Microorganisms [1]; MRSA
  Organism, effect (morphology, biofilm and growth disruption): MRSA (C)
Microorganisms [1]; S. epidermidis
  Organism, effect (morphology, biofilm and growth disruption): S. epidermidis (C)
Microorganisms [1]; S. pneumoniae
  Organism, effect (morphology, biofilm and growth disruption): S. pneumoniae (R)
Microorganisms [2]
  Activities: G B

## PF-394 (VLKEECYQKN; Peptide with targeting and/or antimicrobial activity)
bacteria
  Target(s) (microorganisms bound by the targeting peptide): S. epidermidis and MRSA and C. jejuni
Microorganisms [1]; E. faecalis
  Organism, effect: E. faecalis (A)
Microorganisms [1]; MRSA
  Organism, effect: MRSA (C)
Microorganisms [2]
  Activities: G B

## PF-764 (chain 1 GYFEPGKRD; chain 2 GYFEPGKRD; Peptide with targeting and/or antimicrobial activity)
bacteria
  Target(s) (microorganism bound by the targeting peptide): S. epidermidis and M. luteus and C. albicans and MRSA and S. pneumoniae and E. faecalis and C. jeikeium
Microorganisms [1]; MRSA
  Organism, effect (morphology, biofilm and growth disruption): MRSA (D)
Microorganisms [1]; S. pneumoniae
  Organism, effect (morphology, biofilm and growth disruption): S. pneumoniae (H)
Microorganisms [2]
  Activities: G B

## PF-558 (ADAPPPLIVRYS; Peptide with targeting and/or antimicrobial activity)
bacteria
  Target(s) (microorganisms bound by the targeting peptide): S. epidermidis; also recorded: E. coli; also recorded: C. albicans; also recorded: C. jeikeium; also recorded: C. jejuni
Microorganisms [1]; B. subtilis
  Organism, effect (morphology, biofilm and growth disruption): B. subtilis (D)
Microorganisms [1]; C. jejuni
  Organism, effect (morphology, biofilm and growth disruption): C. jejuni (H)
Microorganisms [1]; MRSA
  Organism, effect (morphology, biofilm and growth disruption): MRSA (C)
Microorganisms [1]; S. epidermidis
  Organism, effect (morphology, biofilm and growth disruption): S. epidermidis (M)
Microorganisms [1]; S. pneumoniae
  Organism, effect (morphology, biofilm and growth disruption): S. pneumoniae (R)
Microorganisms [2]
  Activities: G B

## PF-370 (VIFLHKESGNLKEIFY; Peptide with targeting and/or antimicrobial activity)
bacteria; [4]
  Target(s): S. epidermidis; also recorded: E. coli; also recorded: P. aeruginosa; also recorded: E. faecalis; also recorded: C. jejuni
Microorganisms [1]; E. coli
  Organism, effect: E. coli (R)
Microorganisms [1]; MRSA
  Organism, effect: MRSA (C)
Microorganisms [1]; S. epidermidis
  Organism, effect: S. epidermidis (C)
Microorganisms [2]
  Activities: G B

## PF-C072 (KKMFSLIRKVNWIFFILFIVLDLTNVFPLIRTILFAILSRQ; Peptide with targeting and/or antimicrobial activity)
bacteria
  Target(s) (microorganism bound by the targeting peptide): A. naeslundii; also recorded: F. nucleatum; also recorded: P. gingivalis; also recorded: S. mutans; also recorded: T. denticola
Microorganisms [1]; F. nucleatum
  Organism, effect (morphology, biofilm and growth disruption): F. nucleatum (T)
Microorganisms [1]; P. gingivalis
  Organism, effect (morphology, biofilm and growth disruption): P. gingivalis (T)
Microorganisms [1]; S. mutans
  Organism, effect (morphology, biofilm and growth disruption): S. mutans (F)
Microorganisms [2]
  Activities: G B

## PF-746 (chain 1 FLGNSQYFTRK; chain 2 FLGNSQYFTRK; Peptide with targeting and/or antimicrobial activity)
bacteria
  Target(s) (microorganism bound by the targeting peptide): S. epidermidis; also recorded: M. luteus; also recorded: E. coli; also recorded: C. albicans; also recorded: S. pneumoniae; also recorded: E. faecalis; also recorded: C. jeikeium
Microorganisms [1]; E. coli
  Organism, effect (morphology, biofilm and growth disruption): E. coli (C)
Microorganisms [1]; M. luteus
  Organism, effect (morphology, biofilm and growth disruption): M. luteus (C)
Microorganisms [1]; MRSA
  Organism, effect (morphology, biofilm and growth disruption): MRSA (C)
Microorganisms [1]; P. aeruginosa
  Organism, effect (morphology, biofilm and growth disruption): P. aeruginosa (A)
Microorganisms [1]; S. epidermidis
  Organism, effect (morphology, biofilm and growth disruption): S. epidermidis (C)
Microorganisms [1]; S. mutans
  Organism, effect (morphology, biofilm and growth disruption): S. mutans (D)
Microorganisms [1]; S. pneumoniae
  Organism, effect (morphology, biofilm and growth disruption): S. pneumoniae (C)
Microorganisms [2]
  Activities: G B

## PF-514 (QRFYKLFYHIDLTNEQALKLFQVK; Peptide with targeting and/or antimicrobial activity)
bacteria
  Target(s) (microorganisms bound by the targeting peptide): S. epidermidis and E. coli and P. aeruginosa and C. albicans and MRSA and S. pneumoniae and E. faecalis and C. jeikeium
Microorganisms [1]; E. coli
  Organism, effect (morphology, biofilm and growth disruption): E. coli (R)
Microorganisms [1]; E. faecalis
  Organism, effect (morphology, biofilm and growth disruption): E. faecalis (C)
Microorganisms [1]; S. epidermidis
  Organism, effect (morphology, biofilm and growth disruption): S. epidermidis (C)
Microorganisms [1]; S. pneumoniae
  Organism, effect (morphology, biofilm and growth disruption): S. pneumoniae (M)
Microorganisms [2]
  Activities: G B

## PF-037 (MTKKRRYDTTEFGLAHSMTAKITLHQALYK; Peptide with targeting and/or antimicrobial activity)
bacteria; [3]
  Target(s): S. epidermidis and M. luteus and P. aeruginosa and C. albicans and MRSA and S. pneumoniae and E. faecalis and C. jeikeium
Microorganisms [1]; C. jeikeium
  Organism, effect: C. jeikeium (D)
Microorganisms [1]; M. luteus
  Organism, effect: M. luteus (C)
Microorganisms [1]; MRSA
  Organism, effect: MRSA (R)
Microorganisms [1]; S. epidermidis
  Organism, effect: S. epidermidis (D)
Microorganisms [2]
  Activities: G B

## PF-C065 (DEERYSDSYFLKEKVFYLILALFLILFHQKYLYFLEIITI; Peptide with targeting and/or antimicrobial activity)
bacteria
  Target(s) (microorganism bound by the targeting peptide): A. naeslundii; also recorded: F. nucleatum; also recorded: P. gingivalis; also recorded: S. mutans
Microorganisms [1]; F. nucleatum
  Organism, effect (morphology, biofilm and growth disruption): F. nucleatum (T)
Microorganisms [2]
  Activities: G B

## PF-587 (ASGKYQSYLLNVYVDSKKDRLDIFDKLKAKAKFVL; Peptide with targeting and/or antimicrobial activity)
bacteria
  Target(s) (microorganisms bound by the targeting peptide): S. epidermidis and M. luteus and E. coli and MRSA and S. pneumoniae and E. faecalis and C. jeikeium
Microorganisms [1]; S. pneumoniae
  Organism, effect (morphology, biofilm and growth disruption): S. pneumoniae (C)
Microorganisms [2]
  Activities: G B

## PF-383 (WSEIEINTKQSN; Peptide with targeting and/or antimicrobial activity)
bacteria; [4]
  Target(s): S. epidermidis; also recorded: B. subtilis; also recorded: B. fragilis; also recorded: E. coli; also recorded: C. jejuni
Microorganisms [1]; E. coli
  Organism, effect: E. coli (R)
Microorganisms [1]; S. epidermidis
  Organism, effect: S. epidermidis (C)
Microorganisms [2]
  Activities: G B

## PF-073 (CPSVTMDACALLQKFDFCNNISHFRHFFAIKQPIER; Peptide with targeting and/or antimicrobial activity)
bacteria; [4]
  Target(s): S. epidermidis and M. luteus and P. aeruginosa and C. albicans and MRSA and S. pneumoniae and E. faecalis
Microorganisms [1]; C. jeikeium
  Organism, effect: C. jeikeium (D)
Microorganisms [1]; C. jejuni
  Organism, effect: C. jejuni (D)
Microorganisms [1]; M. luteus
  Organism, effect: M. luteus (R)
Microorganisms [1]; MRSA
  Organism, effect: MRSA (M)
Microorganisms [1]; S. epidermidis
  Organism, effect: S. epidermidis (R)
Microorganisms [1]; S. pneumoniae
  Organism, effect: S. pneumoniae (D)
Microorganisms [2]
  Activities: G B

## PF-289 (MGRHLWNPSYFVATVSENTEEQIRKYRKNK; Peptide with targeting and/or antimicrobial activity)
bacteria; [4]
  Target(s): C. difficile
Microorganisms [1]; B. subtilis
  Organism, effect: B. subtilis (C)
Microorganisms [2]
  Activities: G B

## PF-551 (QVKEKRREIELQFRDAEKKLEASVQAE; Peptide with targeting and/or antimicrobial activity)
bacteria
  Target(s) (microorganisms bound by the targeting peptide): S. pneumoniae
Microorganisms [1]; MRSA
  Organism, effect (morphology, biofilm and growth disruption): MRSA (C)
Microorganisms [2]
  Activities: G B

## PF-614 (GLDIYA; Peptide with targeting and/or antimicrobial activity)
bacteria
  Target(s) (microorganism bound by the targeting peptide): S. epidermidis; also recorded: E. coli; also recorded: C. jeikeium
Microorganisms [1]; C. jejuni
  Organism, effect (morphology, biofilm and growth disruption): C. jejuni (R)
Microorganisms [1]; E. faecalis
  Organism, effect (morphology, biofilm and growth disruption): E. faecalis (A)
Microorganisms [1]; S. epidermidis
  Organism, effect (morphology, biofilm and growth disruption): S. epidermidis (M)
Microorganisms [1]; S. pneumoniae
  Organism, effect (morphology, biofilm and growth disruption): S. pneumoniae (R)
Microorganisms [2]
  Activities: G B
